US8377967B2, “Piperidine derivative” (Nippon Zoki Pharmaceutical Co., Ltd., priority 2008, dated 2013)
Counter-ions that a name gives are not always drawn.

Target: T1, cerebral H1 receptor (Mus musculus, UniProt P70174)
T1 construct: the entire brain, except for cerebellum and medulla oblongatae, was rapidly excised; from tissue; host or cells: brain homogenate (without cerebellum and medulla oblongata) of orally dosed ICR male mice
Experiment: Murine cerebral H1 receptor occupying content (ex vivo)
Type: in vivo
Details: ICR male mouse, oral administration, brain excised after 1 hour, 3H-pyrilamine binding in brain homogenate; larger = lower brain transfer; read-out: ID50 (the source's name)
Procedure: A 6-week-old ICR male mouse was previously fed for one week or more by allowing the mouse to take a solid feed and tap water ad libitum, under the environment setting of a temperature of 22° C., humidity of 55% and an artificial illumination of 12 hours a day, and the mouse was fasted overnight to be used for the experiment. A substance to be tested was dissolved with water for injection or suspended in 0.5% carboxymethyl cellulose solution, and the solution or suspension was orally administered to the mouse (dose volume: 0.1 mL/10 g body weight). After 1 hour from the oral administration, the mouse was decapitated, and the entire brain, except for cerebellum and medulla oblongatae, was rapidly excised. The excised brain tissue was homogenized with Polytron (manufactured by Kinematica) in an ice-cooled 50 mmol/L phosphate buffered saline (pH 7.4, 100 mg/1.9 mL).
To a test tube for reaction (TPX-Tube) were added 180 μL of the brain homogenate, and 10 μL of ^3H-pyrilamine solution (final concentration: 2 nmol/L) and 10 μL of a non-labeled pyrilamine solution (final concentration: 200 μmol/L) or a 50 mmol/L phosphate buffered saline, and the mixture was incubated at room temperature for 45 minutes, and 2.0 mL of an ice-cooled, 50 mmol/L phosphate buffered saline was then added thereto to stop the reaction. The reaction mixture was filtered with a GF/B filter (manufactured by […]), and the […] was placed in a vial and dried overnight at 60 degrees. After drying, 10 mL of a scintillator (AL-1, toluene-based, manufactured by DOJINDO LABORATORIES) was added to the product, and the disintegration per minute (dpm) was measured with a liquid scintillation counter (manufactured by Packard, U.S.A., TRI-CARB 2700TR) (5 minutes/vial).

T1 sequence (P70174 whole entry): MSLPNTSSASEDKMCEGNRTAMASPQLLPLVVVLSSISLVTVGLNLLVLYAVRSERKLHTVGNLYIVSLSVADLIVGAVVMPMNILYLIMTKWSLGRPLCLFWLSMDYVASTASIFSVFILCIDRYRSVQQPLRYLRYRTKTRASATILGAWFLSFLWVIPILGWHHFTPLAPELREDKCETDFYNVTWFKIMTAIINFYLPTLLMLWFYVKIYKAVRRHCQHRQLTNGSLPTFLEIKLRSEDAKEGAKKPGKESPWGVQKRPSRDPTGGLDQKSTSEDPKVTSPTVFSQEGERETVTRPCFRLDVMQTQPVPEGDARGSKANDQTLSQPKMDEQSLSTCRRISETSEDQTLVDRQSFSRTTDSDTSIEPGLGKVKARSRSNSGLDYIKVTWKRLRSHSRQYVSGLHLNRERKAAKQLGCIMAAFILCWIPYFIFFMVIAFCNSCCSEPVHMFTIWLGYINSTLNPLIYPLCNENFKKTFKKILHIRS

**Q.** With `CN1CCC(=C2c3ccccc3CCc3sc(C(=O)O)cc32)CC1.Cl` [Compound 4, [4-(1-Methylpiperidin-4-ylidene)-9,10-dihydro-4H-1-thiabenzo[f]azulen-2-yl]carboxylic acid hydrochloride] as the compound, how does the ED50 read?
**A.** 43.1 mg/kg

Same assay, conditions: ID50 of cerebral receptor binding test (Table 20) divided by ED50 of vascular hyperpermeability test (Table 19)

**Q.** How did the “ID50 (mg/kg)/ ED50 (mg/kg)” value turn out when `CN1CCC(=C2c3ccccc3CCc3sc(C(=O)O)cc32)CC1.Cl` [Compound 4, [4-(1-Methylpiperidin-4-ylidene)-9,10-dihydro-4H-1-thiabenzo[f]azulen-2-yl]carboxylic acid hydrochloride] was run?
**A.** 62.5

Tested on: histamine-induced vascular hyperpermeability reaction
Experiment: Rat histamine-induced vascular hyperpermeability reaction (in vivo antihistamine action)
Details: SD male rat, oral administration 1 hour before intracutaneous histamine, leaked Evans Blue pigment
Procedure: An SD male rat (SPF) of 180 g in weight was previously fed for one week or more by allowing the rat to take a solid feed and tap water ad libitum, under the environment setting of a temperature of 22° C., humidity of 55% and an artificial illumination of 12 hours a day (light phase 8 am to 8 pm), and the rat was fasted overnight to be used for the experiment. Histamine•dihydrochloride (hereinafter referred to as histamine) and Evans Blue were used by dissolving each in physiological saline upon use. A substance to be tested was dissolved in water for injection or suspended in 0.5% carboxymethyl cellulose sodium, and the rat was orally administered with the solution or suspension (dose volume: 5 mL/kg body weight). After 1 hour from the administration, the physiological saline and the histamine solution were each intracutaneously injected to two locations (20 μg/0.05 ml/location) each on a back part of the rat of which hair was sheared with an electric clipper while anesthetizing with an ether. A 0.5% Evans Blue-containing physiological saline was injected intravenously to the tail of the rat (1 mL/200 g body weight) immediately before the intracutaneous injection of the histamine.
After 30 minutes, the animal was decapitated, and allowed to bleed lethally, and the skin was removed to measure an amount of leaked pigment in the blue-stained portion. The measurement of the amount of leaked pigment was carried out as follows. Skins of the pigment leaking site were cut out at two locations, 1 mL of a 2 mol/L aqueous potassium hydroxide solution was added thereto in a test tube, and the test tube was allowed to stand overnight at 37° C. to dissolve. Thereafter, 6 mL of a 1:3 mixed solution of 0.67 mol/L phosphoric acid and acetone was added to the solution, and the mixture was vigorously shaken for 10 minutes. Thereafter, the mixture was filtered, and the absorbance of the filtrate at 620 nm was measured. The absorbance obtained from the two locations of the sites injected with physiological saline, as blank value, was used for a compensation. The amount of leaked pigment was calculated from the calibration curve of Evans Blue at 620 nm.

**Q.** With `CN1CCC(=C2c3ccccc3CCc3sc(C(=O)O)cc32)CC1.Cl` [Compound 4, [4-(1-Methylpiperidin-4-ylidene)-9,10-dihydro-4H-1-thiabenzo[f]azulen-2-yl]carboxylic acid hydrochloride] as the compound, how does the ED50 read?
**A.** 0.69 mg/kg

**Q.** `CN1CCC(=C2c3ccccc3CC(=O)c3sccc32)CC1` [Ketotifen, reference compound] was tested. Which ED50 did it give?
**A.** 0.54 mg/kg

Target: human histamine H1 receptor (Homo sapiens, UniProt P35367)
Experiment: In vitro human histamine H1 receptor binding experiment ([3H]pyrilamine)
Details: HEK293A cells stably expressing human histamine H1 receptor, [3H]pyrilamine 3 nmol/L, room temperature 60 minutes
Procedure: Recombinant human histamine H1 receptor plasmid (prepared by Invitrogen) was transfected to HEK293A cells with Lipofectamine 2000 (manufactured by Invitrogen). Cells stably expressing human histamine H1 receptor were screened with Geneticin (manufactured by Invitrogen). The cells were continued to be cultured using a Dulbecco's Modified Eagle Medium containing 10% fetal bovine serum, 0.1 mmol/L MEM Non-Essential Amino Acids Solution, 2 mmol/L L-glutamine and 0.7 mg/mL Geneticin in a 5% CO2 incubator at 37° C. The cells stably expressing human histamine H1 receptor were prepared using 50 mmol/L Tris-HCl (pH 7.5) (hereinafter referred to as buffer) containing 0.1% bovine serum albumin, so as to have a concentration of 3×10^6 cells/mL, to give a cell sample preparation. Fifty microliters of the buffer, 50 μl of a test substance solution at various concentrations, and 50 μL of [^3H]pyrilamine solution (final concentration: 3 nmol/L) were added to each of the wells on the 96-well plate, and stirred, and 100 μL of the cell sample preparation was then added thereto (at a concentration of 3×10^5 cells/well) to initiate the reaction.
The cells were incubated at room temperature for 60 minutes, and then filtered on UniFilter GF/C plate (manufactured by Packard) immersed in 0.5% polyethyleneimine using a cell harvester (IH-110, manufactured by INNOTECH CORPORATION), to stop the reaction, and the plate was washed with the buffer. The plate after washing was sufficiently dried, and 20 μL of a scintillator (MaxiLight, manufactured by Hidex) was added thereto, and count per minute (cpm) was measured with a multi-labeled microplate reader (Plate Chameleo II, manufactured by Hidex). The nonspecific binding was cpm in a case where 30 μmol/L pyrilamine was added. The experiments were carried out at n=3, and at least repeated 3 times.

human histamine H1 receptor, sequence (P35367 whole entry): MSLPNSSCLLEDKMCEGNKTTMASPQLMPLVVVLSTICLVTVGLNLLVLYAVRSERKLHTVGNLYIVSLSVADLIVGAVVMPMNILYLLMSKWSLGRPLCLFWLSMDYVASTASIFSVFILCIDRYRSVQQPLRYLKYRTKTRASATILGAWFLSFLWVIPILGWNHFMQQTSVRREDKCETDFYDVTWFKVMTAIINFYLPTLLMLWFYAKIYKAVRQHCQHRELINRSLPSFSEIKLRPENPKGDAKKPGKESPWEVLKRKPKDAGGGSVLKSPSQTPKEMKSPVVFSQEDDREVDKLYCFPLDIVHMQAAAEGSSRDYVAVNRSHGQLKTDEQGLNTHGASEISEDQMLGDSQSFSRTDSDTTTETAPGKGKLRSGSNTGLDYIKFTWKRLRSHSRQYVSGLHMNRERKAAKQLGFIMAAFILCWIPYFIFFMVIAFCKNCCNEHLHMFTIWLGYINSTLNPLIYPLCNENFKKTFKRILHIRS

**Q.** For `CN1CCC(=C2c3cc(C(=O)O)ccc3CCc3ccsc32)CC1` [Compound 121, 4-(1-Methylpiperidin-4-ylidene)-9,10-dihydro-4H-3-thiabenzo[f]azulene-6-carboxylic acid], which IC50 is on record?
**A.** 94.7 nM

**Q.** For `CN1CCC(=C2c3ccccc3CCc3sc(C(=O)NCC(F)(F)F)cc32)CC1` [Compound 79, N-(2,2,2-Trifluoroethyl)-{[4-(1-methylpiperidin-4-ylidene)-9,10-dihydro-4H-1-thiabenzo[f]azulen-2-yl]}carboxamide], which IC50 is on record?
**A.** 28.2 nM

**Q.** `CN1CCC(=C2c3ccccc3CCc3sc(C(=O)N(C)O)cc32)CC1` [Compound 74, N-Hydroxy-N-methyl-{[4-(1-methylpiperidin-4-ylidene)-9,10-dihydro-4H-1-thiabenzo[f]azulen-2-yl]}carboxamide] was tested. Which IC50 did it give?
**A.** 70.9 nM

**Q.** How did the IC50 turn out when `CCOC(=O)c1ccc2c(c1)C(=C1CCN(C)CC1)c1sccc1CC2` [Compound 115, Ethyl 4-(1-methylpiperidin-4-ylidene)-9,10-dihydro-4H-3-thiabenzo[f]azulene-6-carboxylate] was run?
**A.** 16.6 nM

**Q.** How did the IC50 turn out when `CCOC(=O)c1cc2c(s1)CCc1ccccc1C2=C1CCN(CCO)CC1` [Compound 105, Ethyl {4-[1-(2-hydroxyethyl)piperidin-4-ylidene]-9,10-dihydro-4H-1-thiabenzo[f]azulen-2-yl}carboxylate] was run?
**A.** 50.2 nM

**Q.** For `CN1CCC(=C2c3ccccc3CCc3sc(C(=O)NC(C)(C)CO)cc32)CC1` [Compound 80, N-(2-Methyl-1-hydroxyprop-2-yl)-{[4-(1-methylpiperidin-4-ylidene)-9,10-dihydro-4H-1-thiabenzo[f]azulen-2-yl]}carboxamide], which IC50 is on record?
**A.** 69.9 nM

**Q.** Which IC50 does the source give for `COCCNC(=O)c1cc2c(s1)CCc1ccccc1C2=C1CCN(C)CC1` [Compound 38, N-(2-Methoxyethyl)-[4-(1-methylpiperidin-4-ylidene)-9,10-dihydro-4H-1-thiabenzo[f]azulen-2-yl]carboxamide hydrochloride] here?
**A.** 70.8 nM

**Q.** With `COC(=O)Cc1ccc2c(c1)C(=C1CCN(C)CC1)c1ccsc1CO2` [Compound 116, Methyl[4-(1-methylpiperidin-4-ylidene)-4,10-dihydro-9-oxa-1-thiabenzo[f]azulen-6-yl]acetate hydrochloride] as the compound, how does the IC50 read?
**A.** 3.95 nM

**Q.** For `C=CCNC(=O)c1cc2c(s1)CCc1ccccc1C2=C1CCN(C)CC1` [Compound 86, N-Allyl-{[4-(1-methylpiperidin-4-ylidene)-9,10-dihydro-4H-1-thiabenzo[f]azulen-2-yl]}carboxamide], which IC50 is on record?
**A.** 21.2 nM

**Q.** `C=Cc1cc2c(s1)CCc1ccccc1C2=C1CCN(C)CC1` [Compound 112, 2-Vinyl-4-(1-methylpiperidin-4-ylidene)-9,10-dihydro-4H-1-thiabenzo[f]azulene] was tested. Which IC50 did it give?
**A.** 1.94 nM

**Q.** `COC(=O)CCCc1ccc2c(c1)C(=C1CCN(CCCC(C)=O)CC1)c1sccc1CO2` [Compound 187, Methyl 4-{4-[1-(4-oxopentyl)piperidin-4-ylidene]-4,10-dihydro-9-oxa-3-thiabenzo[f]azulen-6-yl}butyrate hydrochloride] was tested. Which IC50 did it give?
**A.** 8.76 nM

**Q.** With `CC(C(=O)NCCO)c1ccc2c(c1)C(=C1CCN(C)CC1)c1sccc1CO2` (stereo not drawn) [Compound 64, N-(2-Hydroxyethyl)-{2-[4-(1-methylpiperidin-4-ylidene)-4,10-dihydro-9-oxa-3-thiabenzo[f]azulen-6-yl]}propionamide] as the compound, how does the IC50 read?
**A.** 48.6 nM

**Q.** For `CCCN1CCC(=C2c3ccccc3CCc3sc(C(=O)OCC)cc32)CC1` [Compound 133, Ethyl 4-(1-propylpiperidin-4-ylidene)-9,10-dihydro-4H-1-thiabenzo[f]azulene-2-carboxylate hydrochloride], which IC50 is on record?
**A.** 17 nM

**Q.** For `CC(OC(=O)OC1CCCCC1)OC(=O)c1cc2c(s1)CCc1ccccc1C2=C1CCN(C)CC1` (stereo not drawn) [Compound 176, 1-Cyclohexyloxycarbonyloxyethyl 4-(1-methylpiperidin-4-ylidene)-9,10-dihydro-4H-1-thiabenzo[f]azulene-2-carboxylate hydrochloride], which IC50 is on record?
**A.** 72.7 nM

**Q.** For `CON(C)C(=O)c1cc2c(s1)CCc1ccccc1C2=C1CCN(C)CC1` [Compound 84, N-Methyl-N-methoxy-{[4-(1-methylpiperidin-4-ylidene)-9,10-dihydro-4H-1-thiabenzo[f]azulen-2-yl]}carboxamide], which IC50 is on record?
**A.** 38.4 nM

**Q.** Which IC50 does the source give for `COC(=O)Cc1ccc2c(c1)C(=C1CCN(CCNC(N)=O)CC1)c1sccc1CO2` [Compound 174, Methyl {4-[1-(2-ureidoethyl)piperidin-4-ylidene]-4,10-dihydro-9-oxa-3-thiabenzo[f]azulen-6-yl}acetate] here?
**A.** 11 nM

**Q.** How did the IC50 turn out when `CONC(=O)c1cc2c(s1)CCc1ccccc1C2=C1CCN(C)CC1` [Compound 40, N-Methoxy [4-(1-methylpiperidin-4-ylidene)-9,10-dihydro-4H-1-thiabenzo[f]azulen-2-yl]carboxamide hydrochloride] was run?
**A.** 52.1 nM

**Q.** Which IC50 does the source give for `CCOCCN1CCC(=C2c3ccccc3CCc3sc(C(=O)OCC)cc32)CC1` [Compound 181, Ethyl 4-[1-(2-ethoxyethyl)piperidin-4-ylidene]-9,10-dihydro-4H-1-thiabenzo[f]azulene-2-carboxylate hydrochloride] here?
**A.** 13 nM

**Q.** `CN1CCC(=C2c3ccccc3CCc3sc(CC(=O)NCCO)cc32)CC1` [Compound 63, N-(2-Hydroxyethyl)-{[4-(1-methylpiperidin-4-ylidene)-9,10-dihydro-4H-1-thiabenzo[f]azulen-2-yl]}acetamide] was tested. Which IC50 did it give?
**A.** 42 nM

**Q.** How did the IC50 turn out when `CCOC(=O)c1cc2c(s1)CCc1ccccc1C2=C1CCN(CC)CC1` [Compound 103, Ethyl[4-(1-ethylpiperidin-4-ylidene)-9,10-dihydro-4H-1-thiabenzo[f]azulen-2-yl]carboxylate hydrochloride] was run?
**A.** 35.4 nM
